Tested on: recurrent glioblastoma (WHO grade IV)
Conditions: human, in vivo

For O=NN(CCCl)C(=O)NC1CCCCC1 [lomustine], the “clinical and imaging response after one cycle” value was “significant clinical and imaging response”, the “imaging and clinical response after first six weeks of therapy (one cycle), both of two patients” value was “significant imaging and clinical improvement” and the “response on brain scans after chemotherapy was added to Avastin” value was “Response”. For the same compound, the “time disease free (complete tumor disappearance) post PVSRIPO infusion” value was over 32 months.

Reference: patent US10744171B2, “Sequential anti-cancer treatment” (Duke University, priority 2016, dated 2020)
